Measured values from ChEMBL document CHEMBL4043128, “Design, synthesis and biological evaluation of Lenalidomide derivatives as tumor angiogenesis inhibitor” (Bioorg Med Chem Lett, 2017).
Values after ≈ are worked out from the molar mass of the structure shown. Active and inactive are the calls of the source. The rule behind the calls is not given here.

Tests used:
EC9706 [1] = assay: Antiproliferative activity against human EC9706 cells after 48 hrs by CCK-8 assay; type: functional, cell-based; conditions: for IC50: EC9706, 48 h
EC9706 [2] = assay: Antiproliferative activity against human EC9706 cells at >= 600 ug/mL after 48 hrs by CCK-8 assay relative to control; type: functional
EC9706 [3] = assay: Antiproliferative activity against human EC9706 cells at 150 ug/mL after 48 hrs by CCK-8 assay; type: functional, cell-based

With `Cc1ccc(CNc2cccc3c2CN(C2CCC(=O)NC2=O)C3=O)cc1` (stereo unspecified) the Activity (EC9706 [1]) was “Dose-dependent effect”, the IC50 (EC9706 [1]) was 310 µg/mL (≈ 852 µM) and the Activity (EC9706 [2]) was 100%. For the same compound, the Activity (EC9706 [3]) was “Active”.
For `Cc1ccc(C(=O)Nc2cccc3c2CN(C2CCC(=O)NC2=O)C3=O)cc1` (stereo unspecified), the Activity (EC9706 [1]) was “Dose-dependent effect”, the IC50 (EC9706 [1]) was 262 µg/mL (≈ 694 µM) and the Activity (EC9706 [2]) was 100%. The Activity (EC9706 [3]) was “Active”.
`Cc1ccc(S(=O)(=O)Nc2cccc3c2CN(C2CCC(=O)NC2=O)C3=O)cc1` (stereo unspecified) was tested, and the Activity (EC9706 [1]) was “Dose-dependent effect”, the IC50 (EC9706 [1]) was 225 µg/mL (≈ 545 µM) and the Activity (EC9706 [2]) was 100%. For the same compound, the Activity (EC9706 [3]) was “Active”.
In the case of `Nc1cccc2c1CN(C1CCC(=O)NC1=O)C2=O` (stereo unspecified) [LENALIDOMIDE], the Activity (EC9706 [1]) is reported as “Dose-dependent effect”, the IC50 (EC9706 [1]) is reported as 340 µg/mL (≈ 1310 µM) and the Activity (EC9706 [2]) is reported as 100%. The Activity (EC9706 [3]) was “Active”.
